According to ChEMBL document CHEMBL1921717, “Benzothiazole-containing hydroxamic acids as histone deacetylase inhibitors and antitumor agents” (Bioorg Med Chem Lett, 2011):
Values after ≈ are worked out from the molar mass of the structure shown. Active and inactive are the calls of the source. The calls are words filed in the database; no cut-off is given here.

How the values were obtained:
[1] = molecular target: Histone deacetylase 4 (Homo sapiens) (UniProt P56524); experiment: Inhibition of HDAC4 in human SW620 cells assessed as increase in histone H3 acetylation at 1 ug/ml after 24 hrs by Western blot analysis; assay type: cell-based; settings: SW-620
Sequence of Histone deacetylase 4 (Homo sapiens) (P56524 whole entry): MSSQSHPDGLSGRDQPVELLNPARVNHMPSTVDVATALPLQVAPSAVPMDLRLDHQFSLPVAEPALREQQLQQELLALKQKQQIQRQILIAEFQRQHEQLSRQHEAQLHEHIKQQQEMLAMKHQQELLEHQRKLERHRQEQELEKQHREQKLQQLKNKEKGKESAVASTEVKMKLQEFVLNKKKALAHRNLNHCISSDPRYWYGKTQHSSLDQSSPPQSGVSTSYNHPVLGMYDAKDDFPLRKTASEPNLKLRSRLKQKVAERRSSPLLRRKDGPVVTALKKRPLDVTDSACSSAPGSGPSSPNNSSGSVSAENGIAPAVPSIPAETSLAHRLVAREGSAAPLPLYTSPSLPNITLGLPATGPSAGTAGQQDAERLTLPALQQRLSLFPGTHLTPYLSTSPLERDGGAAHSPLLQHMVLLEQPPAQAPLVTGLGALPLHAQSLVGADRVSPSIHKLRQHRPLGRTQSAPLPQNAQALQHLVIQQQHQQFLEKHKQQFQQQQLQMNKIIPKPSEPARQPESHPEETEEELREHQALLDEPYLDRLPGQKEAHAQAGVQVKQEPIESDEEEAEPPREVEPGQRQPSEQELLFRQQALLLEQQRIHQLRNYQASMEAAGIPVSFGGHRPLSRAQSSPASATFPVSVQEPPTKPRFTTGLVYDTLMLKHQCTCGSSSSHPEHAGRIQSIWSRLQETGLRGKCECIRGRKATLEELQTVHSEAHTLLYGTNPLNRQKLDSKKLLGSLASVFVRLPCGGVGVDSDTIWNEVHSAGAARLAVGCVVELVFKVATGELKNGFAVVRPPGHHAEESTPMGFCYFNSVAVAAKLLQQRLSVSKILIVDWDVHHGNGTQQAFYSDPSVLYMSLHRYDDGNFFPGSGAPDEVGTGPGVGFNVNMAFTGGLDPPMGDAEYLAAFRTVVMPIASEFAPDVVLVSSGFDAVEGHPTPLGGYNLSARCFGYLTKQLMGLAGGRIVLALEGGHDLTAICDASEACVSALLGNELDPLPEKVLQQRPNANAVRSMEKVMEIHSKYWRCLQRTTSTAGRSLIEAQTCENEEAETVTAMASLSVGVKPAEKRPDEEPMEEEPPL

[2] = molecular target: Histone deacetylase 4 (Homo sapiens) (UniProt P56524); experiment: Inhibition of HDAC4 in human HL60 cells assessed as increase in histone H4 acetylation at 1 ug/ml after 24 hrs by Western blot analysis; assay type: cell-based; settings: HL-60
[3] = molecular target: Histone deacetylase 3 (Homo sapiens) (UniProt O15379); experiment: Inhibition of HDAC3 in human SW620 cells assessed as increase in histone H3 acetylation at 1 ug/ml after 24 hrs by Western blot analysis; assay type: cell-based; settings: SW-620
Sequence of Histone deacetylase 3 (Homo sapiens) (O15379 whole entry): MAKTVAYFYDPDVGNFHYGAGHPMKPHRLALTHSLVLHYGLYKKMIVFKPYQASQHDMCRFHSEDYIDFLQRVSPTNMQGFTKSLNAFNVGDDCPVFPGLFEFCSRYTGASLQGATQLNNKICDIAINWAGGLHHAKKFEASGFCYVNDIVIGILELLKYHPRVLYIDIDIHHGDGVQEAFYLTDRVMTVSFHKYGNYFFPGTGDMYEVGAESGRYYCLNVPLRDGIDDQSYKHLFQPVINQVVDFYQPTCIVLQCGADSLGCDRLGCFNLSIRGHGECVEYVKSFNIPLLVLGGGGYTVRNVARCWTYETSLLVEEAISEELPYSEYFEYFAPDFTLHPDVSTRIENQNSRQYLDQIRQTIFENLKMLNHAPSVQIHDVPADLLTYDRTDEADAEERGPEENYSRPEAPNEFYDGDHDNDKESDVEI

PC-3 = experiment: Cytotoxicity against human PC3 cells; assay type: functional, cell-based
ASPC1 = experiment: Cytotoxicity against human AsPC1 cells; assay type: functional, cell-based
NCI-H460 = experiment: Cytotoxicity against human NCI-H460 cells; assay type: functional, cell-based
SW-620 = experiment: Cytotoxicity against human SW620 cells; assay type: functional, cell-based
MCF7 = experiment: Cytotoxicity against human MCF7 cells; assay type: functional, cell-based
[4] = molecular target: Histone deacetylase 3 (Homo sapiens) (UniProt O15379); experiment: Inhibition of HDAC3 in human HL60 cells assessed as increase in histone H4 acetylation at 1 ug/ml after 24 hrs by Western blot analysis; assay type: cell-based; settings: HL-60

Structure (SMILES): O=C(CCCCCCC(=O)Nc1nc2ccc([N+](=O)[O-])cc2s1)NO
- inhibition [1]: Active
- inhibition [2]: Active
- inhibition [3]: Active
- IC50 (PC-3): 1.28 µg/mL (≈ 3.49 µM)
- IC50 (ASPC1): 1.65 µg/mL (≈ 4.5 µM)
- IC50 (NCI-H460): 1.9 µg/mL (≈ 5.19 µM)
- IC50 (SW-620): 0.29 µg/mL (≈ 0.791 µM)
- IC50 (MCF7): 3.83 µg/mL (≈ 10.5 µM)
- inhibition [4]: Active

Structure (SMILES): CS(=O)(=O)c1ccc2nc(NC(=O)CCCCCCC(=O)NO)sc2c1
- inhibition [1]: inactive
- inhibition [2]: inactive
- inhibition [3]: inactive
- IC50 (PC-3): 5.69 µg/mL (≈ 14.2 µM)
- IC50 (ASPC1): 13.5 µg/mL (≈ 33.8 µM)
- IC50 (NCI-H460): 6.54 µg/mL (≈ 16.4 µM)
- IC50 (SW-620): 5.42 µg/mL (≈ 13.6 µM)
- IC50 (MCF7): 15.3 µg/mL (≈ 38.4 µM)
- inhibition [4]: inactive

Structure (SMILES): O=C(CCCCC(=O)Nc1nc2ccccc2s1)NO
- inhibition [1]: inactive
- inhibition [2]: inactive
- inhibition [3]: inactive
- IC50 (PC-3): 12.5 µg/mL (≈ 42.6 µM)
- IC50 (ASPC1): 10.2 µg/mL (≈ 34.7 µM)
- IC50 (NCI-H460): 14.4 µg/mL (≈ 49.1 µM)
- IC50 (SW-620): 7.85 µg/mL (≈ 26.8 µM)
- IC50 (MCF7): 4.02 µg/mL (≈ 13.7 µM)
- inhibition [4]: inactive

Structure (SMILES): Cc1ccc2nc(NC(=O)CCCCC(=O)NO)sc2c1
- inhibition [1]: inactive
- inhibition [2]: inactive
- inhibition [3]: inactive
- IC50 (PC-3): 6.23 µg/mL (≈ 20.3 µM)
- IC50 (ASPC1): 13.3 µg/mL (≈ 43.4 µM)
- IC50 (NCI-H460): 11 µg/mL (≈ 35.7 µM)
- IC50 (SW-620): 4.69 µg/mL (≈ 15.3 µM)
- IC50 (MCF7): 4.27 µg/mL (≈ 13.9 µM)
- inhibition [4]: inactive

Structure (SMILES): CS(=O)(=O)c1ccc2nc(NC(=O)CCCCC(=O)NO)sc2c1
- inhibition [1]: inactive
- inhibition [2]: inactive
- inhibition [3]: inactive
- IC50 (PC-3): > 30 µg/mL
- IC50 (ASPC1): > 30 µg/mL
- IC50 (NCI-H460): > 30 µg/mL
- IC50 (SW-620): > 30 µg/mL
- IC50 (MCF7): > 30 µg/mL
- inhibition [4]: inactive

Structure (SMILES): CCOc1ccc2nc(NC(=O)CCCCC(=O)NO)sc2c1
- inhibition [1]: inactive
- inhibition [2]: inactive
- inhibition [3]: inactive
- IC50 (PC-3): 6.69 µg/mL (≈ 19.8 µM)
- IC50 (ASPC1): 16.7 µg/mL (≈ 49.5 µM)
- IC50 (NCI-H460): 7.96 µg/mL (≈ 23.6 µM)
- IC50 (SW-620): 9.26 µg/mL (≈ 27.4 µM)
- IC50 (MCF7): 8.72 µg/mL (≈ 25.8 µM)
- inhibition [4]: inactive

Structure (SMILES): COc1ccc2nc(NC(=O)CCCCCCC(=O)NO)sc2c1
- inhibition [1]: Active
- inhibition [2]: Active
- inhibition [3]: Active
- IC50 (PC-3): 1.56 µg/mL (≈ 4.44 µM)
- IC50 (ASPC1): 0.79 µg/mL (≈ 2.25 µM)
- IC50 (NCI-H460): 1.25 µg/mL (≈ 3.56 µM)
- IC50 (SW-620): 0.96 µg/mL (≈ 2.73 µM)
- IC50 (MCF7): 1.85 µg/mL (≈ 5.26 µM)
- inhibition [4]: Active

Structure (SMILES): CCOc1ccc2nc(NC(=O)CCCCCCC(=O)NO)sc2c1
- inhibition [1]: inactive
- inhibition [2]: inactive
- inhibition [3]: inactive
- IC50 (PC-3): 16.9 µg/mL (≈ 46.2 µM)
- IC50 (ASPC1): 9.88 µg/mL (≈ 27 µM)
- IC50 (NCI-H460): 6.58 µg/mL (≈ 18 µM)
- IC50 (SW-620): 10.4 µg/mL (≈ 28.5 µM)
- IC50 (MCF7): 11.6 µg/mL (≈ 31.8 µM)
- inhibition [4]: inactive

Structure (SMILES): Cc1ccc2nc(NC(=O)CCCCCCC(=O)NO)sc2c1
- inhibition [1]: Active
- inhibition [2]: Active
- inhibition [3]: Active
- IC50 (PC-3): 0.53 µg/mL (≈ 1.58 µM)
- IC50 (ASPC1): 0.54 µg/mL (≈ 1.61 µM)
- IC50 (NCI-H460): 0.84 µg/mL (≈ 2.5 µM)
- IC50 (SW-620): 0.56 µg/mL (≈ 1.67 µM)
- IC50 (MCF7): 1.6 µg/mL (≈ 4.77 µM)
- inhibition [4]: Active

Structure (SMILES): COc1ccc2nc(NC(=O)CCCCC(=O)NO)sc2c1
- inhibition [1]: inactive
- inhibition [2]: inactive
- inhibition [3]: inactive
- IC50 (PC-3): 15.3 µg/mL (≈ 47.3 µM)
- IC50 (ASPC1): 23.9 µg/mL (≈ 74 µM)
- IC50 (NCI-H460): 21.4 µg/mL (≈ 66.2 µM)
- IC50 (SW-620): 9.07 µg/mL (≈ 28 µM)
- IC50 (MCF7): 5.91 µg/mL (≈ 18.3 µM)
- inhibition [4]: inactive

Structure (SMILES): O=C(CCCCC(=O)Nc1nc2ccc([N+](=O)[O-])cc2s1)NO
- inhibition [1]: inactive
- inhibition [2]: inactive
- inhibition [3]: inactive
- IC50 (PC-3): > 30 µg/mL
- IC50 (ASPC1): > 30 µg/mL
- IC50 (NCI-H460): > 30 µg/mL
- IC50 (SW-620): > 30 µg/mL
- IC50 (MCF7): > 30 µg/mL
- inhibition [4]: inactive

Structure (SMILES): O=C(CCCCCCC(=O)Nc1nc2ccccc2s1)NO
- inhibition [1]: Active
- inhibition [2]: Active
- inhibition [3]: Active
- IC50 (PC-3): 5.44 µg/mL (≈ 16.9 µM)
- IC50 (ASPC1): 5.69 µg/mL (≈ 17.7 µM)
- IC50 (NCI-H460): 5.71 µg/mL (≈ 17.8 µM)
- IC50 (SW-620): 4.01 µg/mL (≈ 12.5 µM)
- IC50 (MCF7): 6.61 µg/mL (≈ 20.6 µM)
- inhibition [4]: Active

Structure (SMILES): O=C(CCCCCCC(=O)Nc1ccccc1)NO [VORINOSTAT]
- IC50 (PC-3): 0.94 µg/mL (≈ 3.56 µM)
